Four compounds from US12187701B2, “Taire family kinase inhibitors and uses thereof” (Dana-Farber Cancer Institute, Inc., priority 2018, dated 2025) can be followed below.

One test has as its target Cdk14/CycY (Homo sapiens (Human), UniProt O94921). As to the kind of experiment: Lanthascreen Eu kinase binding assay for Cdk14/CycY with 30 minute pre-incubation. To be noted: 30 minute pre-incubation of kinase with compound. The method, then:
Lanthascreen Eu kinase binding assays were conducted for Cdk14/CycY largely as performed in the commercial assay service by Life Technologies, but included a 30 minute pre-incubation step of the kinase with candidate compounds to facilitate covalent bond formation.
For orientation: Time-resolved FRET reads energy transfer from a long-lived donor to a nearby acceptor.

For another test, the system named is HCT116 cells. As to the kind of experiment: Antiproliferation assay, Cell Titer Glo, 72 hours. The test is classed as cell-based. A digest of the protocol: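 Luminescent CellTiter-Glo read-out after 72 h compound exposure (four-fold dilutions, 37 °C, 5% CO2) of HCT116 cells plated at 750 cells/well in McCoy's 5A + 10% FBS. Biological quadruplicates; IC50 from non-linear curve fitting.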
A general note: ATP-based viability assays read luminescence as a measure of living cells.

In test [1] the target is T1, Cdk14 (Homo sapiens (Human), UniProt O94921). Kind of test: Cdk14 33P kinase assay (Reaction Biology Corp.). The test is classed as biochemical.
Target sequence in this assay (O94921 whole entry, looked up, the tested form may be a part): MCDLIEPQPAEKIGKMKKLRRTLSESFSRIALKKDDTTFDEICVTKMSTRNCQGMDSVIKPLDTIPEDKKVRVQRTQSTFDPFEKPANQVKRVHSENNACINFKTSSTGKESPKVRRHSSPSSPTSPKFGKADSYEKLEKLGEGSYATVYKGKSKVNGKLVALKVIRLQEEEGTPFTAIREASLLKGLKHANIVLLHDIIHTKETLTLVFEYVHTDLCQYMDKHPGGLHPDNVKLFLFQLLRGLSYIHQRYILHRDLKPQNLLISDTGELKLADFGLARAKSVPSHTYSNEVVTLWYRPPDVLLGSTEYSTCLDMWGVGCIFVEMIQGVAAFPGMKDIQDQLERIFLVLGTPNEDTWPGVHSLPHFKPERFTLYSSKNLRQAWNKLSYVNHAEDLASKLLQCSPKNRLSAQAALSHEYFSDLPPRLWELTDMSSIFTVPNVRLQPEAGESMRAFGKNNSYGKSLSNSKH
Target sequence in this assay (Q8ND76 whole entry partner, looked up, the tested form may be a part): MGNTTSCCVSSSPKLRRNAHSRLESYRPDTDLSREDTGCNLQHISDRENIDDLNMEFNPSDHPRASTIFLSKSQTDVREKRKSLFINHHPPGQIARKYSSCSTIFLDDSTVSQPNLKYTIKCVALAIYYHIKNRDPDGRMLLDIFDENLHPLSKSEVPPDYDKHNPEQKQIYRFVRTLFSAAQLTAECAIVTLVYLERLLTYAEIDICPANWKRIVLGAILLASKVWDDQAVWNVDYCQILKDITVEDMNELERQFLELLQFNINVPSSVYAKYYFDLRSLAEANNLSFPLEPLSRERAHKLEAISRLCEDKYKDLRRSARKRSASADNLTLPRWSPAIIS
Test [2] has as its target T1, Cdk14. Kind of test: Cellular pull down with biotinylated probe, CDK14.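 As to all read-outs here: biotinylated probe used at 1 µM in lysates overnight at 4 °C.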 The conditions noted are these: HEK293 cells overexpressing Cdk14-flag, 4 hours treatment; for Cellular Potency by Pulldown: some cells print Y or N instead of a concentration. The test is classed as cell-based. As to the method: HEK293 cells overexpressing a Cdk14-flag fusion protein were treated with candidate compounds for 4 hours. Cells were washed with PBS, harvested and lysed in Pierce IP buffer with protease and phosphatase inhibitors (Roche). […] To enhance pulldown, lysates were incubated at room temperature for an additional 2 hours. […] Beads were then washed 3 times with Pierce IP buffer, then boiled at 95° C. for 5 minutes in 2× LDS+10% β-mercaptoethanol. Proteins of interest engaged by the biotinylated compound were then assessed using western blotting.
Target sequence in this assay (O94921 whole entry, the tested form may be a part): as the sequence (O94921 whole entry, looked up, the tested form may be a part) above

In the next test the target is CDK16/CycY (Homo sapiens (Human), UniProt Q00536). As to the kind of experiment: Lanthascreen Eu kinase binding assay for CDK16/CycY. As to the method:
Lanthascreen Eu kinase binding assays were conducted for CDK16/CycY at Life Technologies.

In the next test the target is CDK2/CycA (Homo sapiens (Human), UniProt P24941). Kind of test: Z'LYTE kinase assay for CDK2/CycA at Km ATP. The test is classed as biochemical.
The target in another test is CDK12 (Homo sapiens (Human), UniProt Q9NYV4). As to the kind of experiment: Cellular pull down with biotinylated probe, CDK12. Format: cell-based. To be noted: HEK293 cells, 4 hours treatment; Y/N/slight. As to the method:
HEK293 cells overexpressing a Cdk14-flag fusion protein were treated with candidate compounds for 4 hours. Cells were washed with PBS, harvested and lysed in Pierce IP buffer with protease and phosphatase inhibitors (Roche). […] To enhance pulldown, lysates were incubated at room temperature for an additional 2 hours. Lysates were then incubated with streptavidin agarose (Thermo scientific, cat. #20349) for 2 hours at 4° C. Beads were then washed 3 times with Pierce IP buffer, then boiled at 95° C. for 5 minutes in 2× LDS+10% β-mercaptoethanol. Proteins of interest engaged by the biotinylated compound were then assessed using western blotting. The results of the cellular pulldown protocol are provided in Tables 1 and 2A, 2B, 2C, and 2D below (Columns titled “CDK2 pulldown,” “CDK9 pulldown,” “CDK12 pulldown blocked,” “CDK14 pulldown blocked,” and “Cellular Potency Pulldown.”)

For test [3], the target named is T1, Cdk14. Kind of test: Protein labeling and mass spectrometry analysis of recombinant Cdk14. The test is classed as binding. The conditions noted are these: 10-fold molar excess of compound, 2 hours, room temperature.
Target sequence in this assay (O94921 whole entry, the tested form may be a part): as the sequence (O94921 whole entry, looked up, the tested form may be a part) above
Description: For each analysis, 5 μg protein was injected onto a self-packed reversed phase column ( 1/32″ O.D.×500 um I.D., 5 cm of POROS 50R2 resin). After desalting for four minutes, protein was eluted with an HPLC gradient (0-100% B in 4 minutes, A=0.2M acetic acid in water, B=0.2 M acetic acid in acetonitrile, flow rate=10 μL/min) into an LTQ ion trap mass spectrometer (ThermoFisher). […] After reconstituting in 50% acetonitrile, 1% formic acid, 100 mM ammonium acetate, peptides were analyzed by CE-MS using a ZipChip CE system and autosampler interfaced to a QExactive HF mass spectrometer.^7 (ThermoFisher Scientific, San Jose, CA). Peptide solution was loaded for 30 seconds and separation performed at 500 V/cm on an HR chip for 10 minutes with a background electrolyte consisting of 1% formic acid in 50% acetonitrile. Pressure assist was utilized and started at 1 minute. The mass spectrometer was operated in data dependent mode and subjected the 5 most abundant ions in each MS scan (60 k resolution, 1E6 target, lock mass enabled) to MS/MS (15 k resolution, 2E5 target, 100 ms max inject time). Dynamic exclusion was enabled with a repeat count of 1 and an exclusion time of 6 seconds. MS/MS data was extracted to .mgf using mulitplierz scripts^8,9 and searched against a forward-reverse human NCBI refseq database using Mascot version 2.2. […]
Where [4] appears, read: read-out: IC50 CDK14 binding by Lanthascreen.
The mark [5] stands for this setting: read-out: IC50 CDK16 Lanthascreen binding.
Where [6] appears, read: read-out: IC50 CDK2 Z′LYTE kinase assay.

Read-outs that look alike come from different tables or passages of the source.

As usually defined, the IC50 is the concentration that inhibits the measured activity by half.

Chain of Cdk14/CycY (O94921 whole entry): as the sequence (O94921 whole entry, looked up, the tested form may be a part) above
Chain of Cdk14/CycY (Q8ND76 whole entry partner): as the sequence (Q8ND76 whole entry partner, looked up, the tested form may be a part) above
Chain of CDK16/CycY (Q00536 whole entry): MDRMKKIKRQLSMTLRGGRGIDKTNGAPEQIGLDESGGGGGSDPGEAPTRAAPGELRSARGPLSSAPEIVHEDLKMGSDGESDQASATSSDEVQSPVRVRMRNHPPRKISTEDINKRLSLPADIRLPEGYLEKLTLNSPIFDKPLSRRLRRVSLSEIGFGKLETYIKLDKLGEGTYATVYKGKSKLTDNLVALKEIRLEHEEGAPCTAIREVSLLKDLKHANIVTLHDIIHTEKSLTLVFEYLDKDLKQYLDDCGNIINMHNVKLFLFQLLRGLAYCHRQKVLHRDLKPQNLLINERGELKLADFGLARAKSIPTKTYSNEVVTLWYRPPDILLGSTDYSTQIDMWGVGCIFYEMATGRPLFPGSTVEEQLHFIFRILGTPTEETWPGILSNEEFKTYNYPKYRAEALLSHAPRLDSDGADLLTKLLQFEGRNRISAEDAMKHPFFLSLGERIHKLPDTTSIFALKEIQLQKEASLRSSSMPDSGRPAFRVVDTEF
Chain of CDK16/CycY (Q8ND76 whole entry partner): as the sequence (Q8ND76 whole entry partner, looked up, the tested form may be a part) above
Chain of CDK12 (Q9NYV4 whole entry, the tested form may be a part): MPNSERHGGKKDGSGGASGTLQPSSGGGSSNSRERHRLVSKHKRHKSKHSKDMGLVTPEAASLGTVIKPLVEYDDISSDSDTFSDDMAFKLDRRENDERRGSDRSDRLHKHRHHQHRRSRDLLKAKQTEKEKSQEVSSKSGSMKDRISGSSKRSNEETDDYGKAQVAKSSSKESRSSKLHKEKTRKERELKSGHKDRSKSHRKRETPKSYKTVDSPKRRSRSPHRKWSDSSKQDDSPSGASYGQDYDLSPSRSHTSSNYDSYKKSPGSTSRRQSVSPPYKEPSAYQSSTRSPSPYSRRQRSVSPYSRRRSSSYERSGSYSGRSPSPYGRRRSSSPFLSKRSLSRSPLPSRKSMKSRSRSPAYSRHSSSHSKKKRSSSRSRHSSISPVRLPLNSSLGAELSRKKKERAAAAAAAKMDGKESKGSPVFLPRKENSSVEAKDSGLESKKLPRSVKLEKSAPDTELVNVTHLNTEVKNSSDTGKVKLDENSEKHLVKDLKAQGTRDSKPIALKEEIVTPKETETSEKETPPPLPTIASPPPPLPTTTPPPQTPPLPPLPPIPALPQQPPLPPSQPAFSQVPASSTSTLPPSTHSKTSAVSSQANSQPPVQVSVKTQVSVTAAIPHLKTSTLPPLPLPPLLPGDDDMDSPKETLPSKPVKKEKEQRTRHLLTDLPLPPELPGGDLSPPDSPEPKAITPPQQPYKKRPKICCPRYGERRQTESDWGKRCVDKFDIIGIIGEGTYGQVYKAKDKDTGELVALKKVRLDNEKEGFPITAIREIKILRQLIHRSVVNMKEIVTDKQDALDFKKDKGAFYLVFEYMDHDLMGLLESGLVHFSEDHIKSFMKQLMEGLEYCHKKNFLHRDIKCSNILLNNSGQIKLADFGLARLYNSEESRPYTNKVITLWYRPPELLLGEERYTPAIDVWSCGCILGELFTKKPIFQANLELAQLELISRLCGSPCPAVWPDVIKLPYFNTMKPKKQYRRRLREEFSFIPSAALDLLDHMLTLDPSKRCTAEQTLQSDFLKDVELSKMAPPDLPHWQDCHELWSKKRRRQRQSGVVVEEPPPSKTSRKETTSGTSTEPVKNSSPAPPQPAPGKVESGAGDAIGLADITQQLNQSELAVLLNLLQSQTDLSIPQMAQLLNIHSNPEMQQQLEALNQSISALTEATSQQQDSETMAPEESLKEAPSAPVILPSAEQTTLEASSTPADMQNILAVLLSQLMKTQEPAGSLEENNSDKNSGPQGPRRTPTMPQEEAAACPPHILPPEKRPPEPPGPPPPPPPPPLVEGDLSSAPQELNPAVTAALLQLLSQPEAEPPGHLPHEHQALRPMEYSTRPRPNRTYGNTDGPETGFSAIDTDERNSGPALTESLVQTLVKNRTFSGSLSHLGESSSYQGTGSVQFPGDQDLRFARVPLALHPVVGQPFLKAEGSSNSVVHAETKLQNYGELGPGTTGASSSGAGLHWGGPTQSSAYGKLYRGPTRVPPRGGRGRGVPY

Regarding `CN(C)C/C=C/C(=O)Nc1cccc(S(=O)(=O)N2CCC(NC(=O)c3n[nH]cc3NC(=O)c3c(Cl)cc(Cl)cc3Cl)CC2)c1` [FMF-04-159-2, (E)-N-(1-((3-(4-(dimethylamino)but-2-enamido)phenyl)sulfonyl)piperidin-4-yl)-4-(2,4,6-trichlorobenzamido)-1H-pyrazole-3-carboxamide], the IC50 at Cdk14/CycY (read-out: CDK14 IC50 (nM) LanthaScreen) worked out at 46.6 nM; on Cdk14/CycY (setting [4]) it was 47 nM; in the test on HCT116 cells, 0.45 µM; in the test with HCT116 cells (Homo sapiens, HCT-116, 72 h), 0.45 µM; on Cdk14 [1], 0.718 µM; on CDK16/CycY (read-out: CDK16 IC50), 0.0101 µM. For the same compound, the IC50 was 0.0082 µM on CDK16/CycY (setting [5]), 0.0082 µM at CDK2/CycA (read-out: CDK2 IC50) and 0.0101 µM on CDK2/CycA (setting [6]). Moreover, the “CDK14 pulldown blocked” value at Cdk14 [2] stood at 500 nM. Further, the “Cellular Potency by Pulldown” value at Cdk14 [2] turned out to be 0.5 µM. Moreover, the CDK12 pulldown blocked result at CDK12 is “slight”. Also, the “MS labeling of CDK14*” value at Cdk14 [3] is reported as 100%.

As for `C=CC(=O)Nc1cccc(CN2CCC(NC(=O)c3n[nH]cc3NC(=O)c3c(F)cccc3F)CC2)c1` [FMF-04-160-1, N-(1-(3-acrylamidobenzyl)piperidin-4-yl)-4-(2,6-difluorobenzamido)-1H-pyrazole-3-carboxamide], the IC50 at Cdk14/CycY (setting [4]) worked out at 64 nM; in the test with HCT116 cells (Homo sapiens, HCT-116, 72 h) it was 0.007 µM; on Cdk14 [1], 1.47 µM; at CDK16/CycY (setting [5]) it was 0.12 µM; at CDK2/CycA (setting [6]), 0.165 µM. In addition, on Cdk14 [2], the “Cellular Potency by Pulldown” value was 0.5 µM.

With `C=CC(=O)Nc1cccc(CN2CCC(NC(=O)c3n[nH]cc3NC(=O)c3c(Cl)cccc3OC)CC2)c1` [FMF-04-161-1, N-(1-(3-acrylamidobenzyl)piperidin-4-yl)-4-(2-chloro-6-methoxybenzamido)-1H-pyrazole-3-carboxamide], the IC50 worked out at 11 nM on Cdk14/CycY (setting [4]); 0.009 µM with HCT116 cells (Homo sapiens, HCT-116, 72 h); 0.557 µM against Cdk14 [1]; 0.0128 µM on CDK16/CycY (setting [5]); 0.0502 µM on CDK2/CycA (setting [6]). Moreover, the “Cellular Potency by Pulldown” value at Cdk14 [2] was found to be 0.1 µM.

With `CCOc1cccc(Cl)c1C(=O)Nc1c[nH]nc1C(=O)NC1CCN(S(=O)(=O)c2cccc(NC(=O)/C=C/CN(C)C)c2)CC1` [FMF-05-118-1, (E)-4-(2-chloro-6-ethoxybenzamido)-N-(1-((3-(4-(dimethylamino)but-2-enamido)phenyl)sulfonyl)piperidin-4-yl)-1H-pyrazole-3-carboxamide], the IC50 in the test with HCT116 cells (Homo sapiens, HCT-116, 72 h) came out at 0.102 µM; at CDK16/CycY (read-out: CDK16 IC50) it was 0.0029 µM; on CDK16/CycY (setting [5]), 0.00291 µM; at CDK2/CycA (read-out: CDK2 IC50), 0.0029 µM; at CDK2/CycA (setting [6]), 0.00295 µM. For the same compound, the “CDK14 pulldown blocked” value at Cdk14 [2] turned out to be 1000 nM. The “Cellular Potency by Pulldown” value on Cdk14 [2] came to 1 µM. Further, the “MS labeling of CDK14*” value at Cdk14 [3] was determined as 50%.
